T/C data for nine molecules are collected here from PubChem BioAssay AID328 (DTP/NCI, 2004).

SMILES strings stand for the structures. Values joined by “and” are separate entries in the source; they are usually repeats but may differ in a detail not shown here. Equal entries are not always repeated. Inconclusive results and toxic doses are left out.

The assay relates to BDF1 mice, P388 leukemia ip, median survival T/C. The assay is described as follows: NCI In Vivo Anticancer Drug Screen. Data for tumor model P388 Leukemia (intraperitoneal) in B6D2F1 (BDF1) mice. The settings on record: endpoint: median survival time, higher = longer survival. In outline: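 Read-out is survival of treated animals expressed relative to the vehicle group, as a T/C ratio.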

Where [1] appears, read: dose: 100.0 mg/kg/injection, schedule: Q01DX009 (ip), vehicle: Klucel (hydroxypropylcellulose) (HPC).
Where [2] appears, read: dose: 200.0 mg/kg/injection, schedule: Q01DX009 (ip), vehicle: Klucel (hydroxypropylcellulose) (HPC).
Where [3] appears, read: dose: 50.0 mg/kg/injection, schedule: Q04DX003 (ip), vehicle: saline with Tween-80.
[4] abbreviates: dose: 100.0 mg/kg/injection, schedule: Q04DX003 (ip), vehicle: saline with Tween-80.
The mark [5] stands for this setting: dose: 200.0 mg/kg/injection, schedule: Q04DX003 (ip), vehicle: saline with Tween-80.

For the molecule `CC[C@]1(O)C[C@H]2CN(CCc3c([nH]c4ccccc34)[C@@](C(=O)OC)(c3cc4c(cc3OC)N(C)[C@H]3[C@@](O)(C(=O)OC)[C@H](OC(C)=O)[C@]5(CC)C=CCN6CC[C@]43[C@@H]65)C2)C1`, the T/C (dose: 0.03 mg/kg/injection, schedule: Q03HX024 (ip), vehicle: saline) was 185 % of control; the T/C (dose: 0.06 mg/kg/injection, schedule: Q03HX016 (ip), vehicle: saline) was 162 % of control; the T/C (dose: 0.12 mg/kg/injection, schedule: Q01DX009 (ip), vehicle: saline) was 166 % of control; the T/C (dose: 0.12 mg/kg/injection, schedule: Q01DX009 (ip), vehicle: water) was 252 % of control; the T/C (dose: 0.12 mg/kg/injection, schedule: Q03HX016 (ip), vehicle: saline) was 222 % of control; the T/C (dose: 0.12 mg/kg/injection, schedule: Q03HX024 (ip), vehicle: saline) is 222 % of control. Also, the T/C reads like this: (dose: 0.25 mg/kg/injection, schedule: Q01DX009 (ip), vehicle: saline) 185 % of control; (dose: 0.25 mg/kg/injection, schedule: Q01DX009 (ip), vehicle: water) 240 % of control; (dose: 0.25 mg/kg/injection, schedule: Q01DX010 (ip), vehicle: water) 209 % of control; (dose: 0.25 mg/kg/injection, schedule: Q03HX008 (ip), vehicle: saline) 185 % of control; (dose: 0.25 mg/kg/injection, schedule: Q03HX016 (ip), vehicle: saline) 214 % of control; (dose: 0.25 mg/kg/injection, schedule: Q04DX003 (ip), vehicle: saline) 166 % of control. For the same molecule, the T/C is 214 % of control (dose: 0.5 mg/kg/injection, schedule: Q01DX009 (ip), vehicle: saline); 222 % of control (dose: 0.5 mg/kg/injection, schedule: Q01DX009 (ip), vehicle: water); 195 % of control (dose: 0.5 mg/kg/injection, schedule: Q01DX010 (ip), vehicle: water); 196 % of control (dose: 0.5 mg/kg/injection, schedule: Q04DX003 (ip), vehicle: saline); 170 % of control (dose: 0.5 mg/kg/injection, schedule: Q08DX002 (ip), vehicle: saline); 200 % of control (dose: 0.65 mg/kg/injection, schedule: Q04DX003 (ip), vehicle: saline). The T/C was 92 % of control (dose: 1.0 mg/kg/injection, schedule: Q01DX009 (ip), vehicle: saline); 200 % of control (dose: 1.0 mg/kg/injection, schedule: Q03HX008 (ip), vehicle: saline); 96 % of control (dose: 1.0 mg/kg/injection, schedule: Q03HX016 (ip), vehicle: saline); 214 % of control (dose: 1.0 mg/kg/injection, schedule: Q04DX003 (ip), vehicle: saline); 188 % of control (dose: 1.0 mg/kg/injection, schedule: Q08DX002 (ip), vehicle: saline); 193 % of control (dose: 1.08 mg/kg/injection, schedule: Q04DX003 (ip), vehicle: saline). Further, the T/C is, setting by setting: (dose: 1.8 mg/kg/injection, schedule: Q04DX003 (ip), vehicle: saline) 234 % of control; (dose: 2.0 mg/kg/injection, schedule: Q01DX001 (ip), vehicle: saline) 162 % of control; (dose: 2.0 mg/kg/injection, schedule: Q01DX001 (ip), vehicle: water) 150 % of control; (dose: 2.0 mg/kg/injection, schedule: Q04DX003 (ip), vehicle: saline) 96 % of control; (dose: 2.0 mg/kg/injection, schedule: Q08DX002 (ip), vehicle: saline) 214 % of control; (dose: 3.0 mg/kg/injection, schedule: Q04DX003 (ip), vehicle: saline) 95 % of control. Besides, the T/C is 185 % of control (dose: 4.0 mg/kg/injection, schedule: Q01DX001 (ip), vehicle: saline); 161 % of control (dose: 4.0 mg/kg/injection, schedule: Q01DX001 (ip), vehicle: water); 100 % of control (dose: 4.0 mg/kg/injection, schedule: Q08DX002 (ip), vehicle: saline); 177 % of control (dose: 8.0 mg/kg/injection, schedule: Q01DX001 (ip), vehicle: saline); 96 % of control (dose: 8.0 mg/kg/injection, schedule: Q08DX002 (ip), vehicle: saline); 188 % of control (dose: 16.0 mg/kg/injection, schedule: Q01DX001 (ip), vehicle: saline). In addition, the T/C runs as follows: (dose: 625.0 micrograms/kg/injection, schedule: Q04DX003 (ip), vehicle: saline) 200 % of control; (dose: 648.0 micrograms/kg/injection, schedule: Q04DX003 (ip), vehicle: saline) 180 % of control; (dose: 1080.0 micrograms/kg/injection, schedule: Q04DX003 (ip), vehicle: saline) 195 % of control; (dose: 1250.0 micrograms/kg/injection, schedule: Q04DX003 (ip), vehicle: saline) 238 % of control; (dose: 1800.0 micrograms/kg/injection, schedule: Q04DX003 (ip), vehicle: saline) 190 % of control; (dose: 2500.0 micrograms/kg/injection, schedule: Q04DX003 (ip), vehicle: saline) 230 % of control.

As for `CCCCC(CC)COC(=O)/C=C/C(=O)OCC(CC)CCCC` (stereo not drawn), the T/C was 86 % of control under setting [1] and 86 % of control under setting [2].

For `O=C(Nc1ccc([N+](=O)[O-])cc1)Nc1ccc([N+](=O)[O-])c(C(F)(F)F)c1`, the T/C (dose: 100.0 mg/kg/injection, schedule: Q01DX009 (ip), vehicle: saline with Tween-80) is 87 % of control; the T/C (dose: 110.0 mg/kg/injection, schedule: Q01DX009 (ip), vehicle: Klucel (hydroxypropylcellulose) (HPC)) was 105 % of control and 117 % of control; the T/C (dose: 170.0 mg/kg/injection, schedule: Q01DX009 (ip), vehicle: Klucel (hydroxypropylcellulose) (HPC)) is 121 % of control; the T/C (dose: 200.0 mg/kg/injection, schedule: Q01DX009 (ip), vehicle: saline with Tween-80) was 95 % of control; the T/C (dose: 225.0 mg/kg/injection, schedule: Q01DX009 (ip), vehicle: Klucel (hydroxypropylcellulose) (HPC)) is 105 % of control; the T/C (dose: 400.0 mg/kg/injection, schedule: Q01DX009 (ip), vehicle: saline with Tween-80) is 100 % of control.

In the case of `CCC(=O)c1cc(O)ccc1O`, the T/C reads like this: (dose: 50.0 mg/kg/injection, schedule: Q01DX009 (ip), vehicle: other) 106 % of control; (dose: 100.0 mg/kg/injection, schedule: Q01DX009 (ip), vehicle: other) 97 % of control.

In the case of `CCOC(=O)CCC(NC(=O)c1ccc(N(C=O)CCOC=O)cc1)C(=O)OCC` (stereo not drawn), the T/C under setting [3] was 105 % of control, the T/C under setting [4] is 105 % of control and the T/C under setting [5] was 111 % of control.

As to `CCOC(=O)C(COS(=O)(=O)c1ccc(C)cc1)(COS(=O)(=O)c1ccc(C)cc1)C(=O)OCC`, the T/C was 108 % of control under setting [1]; 100 % of control (dose: 100.0 mg/kg/injection, schedule: Q04DX003 (ip), vehicle: Klucel (hydroxypropylcellulose) (HPC)); 104 % of control under setting [2]; 104 % of control (dose: 200.0 mg/kg/injection, schedule: Q04DX003 (ip), vehicle: Klucel (hydroxypropylcellulose) (HPC)); 100 % of control (dose: 400.0 mg/kg/injection, schedule: Q01DX009 (ip), vehicle: Klucel (hydroxypropylcellulose) (HPC)); 100 % of control (dose: 400.0 mg/kg/injection, schedule: Q04DX003 (ip), vehicle: Klucel (hydroxypropylcellulose) (HPC)).

For `CC[C@@H]1CN(C)[C@H]2Cc3c([nH]c4ccccc34)C(=O)C[C@H]1C2C(=O)OC` (stereo partly drawn), the T/C is, setting by setting: (dose: 100.0 mg/kg/injection, schedule: Q01DX009 (ip), vehicle: saline sonified) 90 % of control; (dose: 100.0 mg/kg/injection, schedule: Q04DX003 (ip), vehicle: saline sonified) 100 % of control; (dose: 200.0 mg/kg/injection, schedule: Q01DX009 (ip), vehicle: saline sonified) 115 % of control; (dose: 200.0 mg/kg/injection, schedule: Q04DX003 (ip), vehicle: saline sonified) 100 % of control; (dose: 400.0 mg/kg/injection, schedule: Q01DX009 (ip), vehicle: saline sonified) 100 % of control; (dose: 400.0 mg/kg/injection, schedule: Q04DX003 (ip), vehicle: saline sonified) 90 % of control.

Regarding `O=C(OC1C2C=CC(C(O)O2)C1c1ccccc1)c1ccc(Cl)cc1` (stereo not drawn), the T/C was 94 % of control (dose: 100.0 mg/kg/injection, schedule: Q01DX001 (ip), vehicle: saline with Tween-80) and 92 % of control (dose: 200.0 mg/kg/injection, schedule: Q01DX001 (ip), vehicle: saline with Tween-80).

Turning to `CN1CCOC1=Nc1ccc(Cl)cc1`, the T/C runs as follows: under setting [3], 104 % of control; under setting [4], 86 % of control and 100 % of control; under setting [5], 95 % of control; (dose: 400.0 mg/kg/injection, schedule: Q04DX003 (ip), vehicle: saline with Tween-80) 90 % of control.
